Experimental findings from PubChem BioAssay AID330 (DTP/NCI, 2004) are described below.

Toxic doses and inconclusive results are not listed.

The test has as its system P388 leukemia ip, CD2F1 mice, survival T/C. The test can be described thus: NCI In Vivo Anticancer Drug Screen. Data for tumor model P388 Leukemia (intraperitoneal) in CD2F1 (CDF1) mice. The conditions noted are these: endpoint: median survival time, higher = longer survival. The method, boiled down: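 Mice carrying the transplanted tumor received test compound or vehicle. Survival was recorded in each group, and the value is the treated-group measurement divided by that of the vehicle-treated control group.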

Setting [1] is: dose: 50.0 mg/kg/injection, schedule: Q01DX009 (ip), vehicle: Klucel (hydroxypropylcellulose) (HPC).
Setting [2] is: dose: 50.0 mg/kg/injection, schedule: Q01DX005 (ip), vehicle: saline with Tween-80.
Setting [3] is: dose: 100.0 mg/kg/injection, schedule: Q01DX005 (ip), vehicle: saline with Tween-80.
[4] abbreviates: dose: 200.0 mg/kg/injection, schedule: Q01DX005 (ip), vehicle: saline with Tween-80.
Where [5] appears, read: dose: 50.0 mg/kg/injection, schedule: Q01DX005 (ip), vehicle: Klucel (hydroxypropylcellulose) (HPC).
Setting [6] is: dose: 100.0 mg/kg/injection, schedule: Q01DX005 (ip), vehicle: Klucel (hydroxypropylcellulose) (HPC).
The mark [7] stands for this setting: dose: 200.0 mg/kg/injection, schedule: Q01DX005 (ip), vehicle: Klucel (hydroxypropylcellulose) (HPC).
[8] abbreviates: dose: 50.0 mg/kg/injection, schedule: Q01DX009 (ip), vehicle: saline.
Setting [9] is: dose: 100.0 mg/kg/injection, schedule: Q01DX009 (ip), vehicle: saline.
The mark [10] stands for this setting: dose: 200.0 mg/kg/injection, schedule: Q01DX009 (ip), vehicle: saline.

Consider `CCO/C=N/c1c(C#N)cnn1C`, for which the T/C under setting [1] is 100 % of control; the T/C (dose: 100.0 mg/kg/injection, schedule: Q01DX009 (ip), vehicle: Klucel (hydroxypropylcellulose) (HPC)) was 98 % of control; the T/C (dose: 200.0 mg/kg/injection, schedule: Q01DX009 (ip), vehicle: Klucel (hydroxypropylcellulose) (HPC)) is 106 % of control; the T/C (dose: 400.0 mg/kg/injection, schedule: Q01DX009 (ip), vehicle: Klucel (hydroxypropylcellulose) (HPC)) is 103 % of control.
Regarding `CCO/C(C)=C(/C(C)=O)C(=O)NC1CCCCC1`, the T/C (dose: 100.0 mg/kg/injection, schedule: Q01DX009 (ip), vehicle: saline with Tween-80) was 95 % of control; the T/C (dose: 200.0 mg/kg/injection, schedule: Q01DX009 (ip), vehicle: saline with Tween-80) was 90 % of control; the T/C (dose: 400.0 mg/kg/injection, schedule: Q01DX009 (ip), vehicle: saline with Tween-80) was 90 % of control.
In the case of `Cc1ccc(S(=O)(=O)NN=C2[C@H]3CC=CC[C@H]3C(=NNS(=O)(=O)c3ccc(C)cc3)[C@@H]3CC=CC[C@H]23)cc1`, the T/C is, setting by setting: under setting [2], 90 % of control; under setting [3], 87 % of control; under setting [4], 103 % of control.
Consider `COC(=O)NC(=Nc1cccc(C(=O)c2ccc3nc(NC(=O)OC)[nH]c3c2)c1)NC(=O)OC`, for which the T/C (dose: 120.0 mg/kg/injection, schedule: Q01DX005 (ip), vehicle: saline with Tween-80) is 90 % of control.
On to `CCCC(=O)CC(=O)Nc1ccccc1`, for which the T/C is, setting by setting: (dose: 100.0 mg/kg/injection, schedule: Q01DX001 (ip), vehicle: saline) 109 % of control; (dose: 200.0 mg/kg/injection, schedule: Q01DX001 (ip), vehicle: saline) 118 % of control; (dose: 400.0 mg/kg/injection, schedule: Q01DX001 (ip), vehicle: saline) 118 % of control.
Consider `COc1ccc(Cc2cc3c(cc2OCC(=O)Nc2nccs2)OCO3)cc1`, for which the T/C is, setting by setting: under setting [5], 88 % of control; under setting [6], 97 % of control; under setting [7], 97 % of control.
For `CCO/C=C1/N=C(Cc2ccccc2)OC1=O`, the T/C by setting is: (dose: 60.0 mg/kg/injection, schedule: Q01DX005 (ip), vehicle: saline + Tween-80 + alcohol) 100 % of control; (dose: 120.0 mg/kg/injection, schedule: Q01DX005 (ip), vehicle: saline + Tween-80 + alcohol) 94 % of control.
For `[CH3][Ge]([CH3])([CH3])/[C](=[C](\c1ccccc1)[Ge]([CH3])([CH3])[CH3])c1ccccc1`, the T/C by setting is: under setting [8], 106 % of control; under setting [9], 92 % of control; under setting [10], 93 % of control.
Take `C[CH2][Ge]([CH3])([CH2]C)[CH2]CCC[CH2][Sn]([CH3])([CH3])[CH3]`: the T/C runs as follows: under setting [8], 98 % of control; under setting [9], 99 % of control; under setting [10], 97 % of control.
`Cc1ccc2nc(N(C)C)[nH]c2c1`: the T/C is 105 % of control (dose: 50.0 mg/kg/injection, schedule: Q01DX005 (ip), vehicle: other) and 109 % of control (dose: 100.0 mg/kg/injection, schedule: Q01DX005 (ip), vehicle: other).
Regarding `CC(=O)OC1CC(C)(O)Cc2cc3c(c(O)c21)C(=O)c1c(O)cc2c(c1C3=O)OC1OC2(C)C(O)C(N(C)C)C1O` (centres undefined), the T/C is 153 % of control (dose: 3.5 mg/kg/injection, schedule: Q01DX009 (ip), vehicle: other); 166 % of control (dose: 7.0 mg/kg/injection, schedule: Q01DX009 (ip), vehicle: other); 167 % of control (dose: 14.0 mg/kg/injection, schedule: Q01DX009 (ip), vehicle: other).
For `OC(c1ccccc1)C1(c2ccccc2)CCN(Cc2ccccc2)CC1` (centres undefined), the T/C under setting [2] is 100 % of control, the T/C under setting [3] is 100 % of control and the T/C under setting [4] is 96 % of control.
In the case of `CC(/C=C(\C)N1CCCC1)=[N+]1CCCC1`, the T/C (dose: 0.12 mg/kg/injection, schedule: Q01DX009 (ip), vehicle: saline) is 111 % of control; the T/C (dose: 0.25 mg/kg/injection, schedule: Q01DX009 (ip), vehicle: saline) is 111 % of control; the T/C (dose: 0.5 mg/kg/injection, schedule: Q01DX009 (ip), vehicle: saline) is 108 % of control; the T/C (dose: 1.0 mg/kg/injection, schedule: Q01DX009 (ip), vehicle: saline) was 109 % of control; the T/C (dose: 2.0 mg/kg/injection, schedule: Q01DX009 (ip), vehicle: saline) is 109 % of control.
Regarding `CCOc1ccc(N2CC(=O)N3CCCCN3C(=O)C2)cc1`, the T/C was 112 % of control under setting [5], 103 % of control under setting [6] and 105 % of control under setting [7].
On to `CC1NC(C(=O)O)Cc2c1[nH]c1ccccc21` (centres undefined), for which the T/C (dose: 25.0 mg/kg/injection, schedule: Q01DX009 (ip), vehicle: suspension in saline) was 105 % of control; the T/C (dose: 50.0 mg/kg/injection, schedule: Q01DX009 (ip), vehicle: suspension in saline) was 105 % of control; the T/C (dose: 50.0 mg/kg/injection, schedule: Q04DX003 (ip), vehicle: saline) is 100 % of control; the T/C (dose: 100.0 mg/kg/injection, schedule: Q01DX009 (ip), vehicle: suspension in saline) was 102 % of control; the T/C (dose: 100.0 mg/kg/injection, schedule: Q04DX003 (ip), vehicle: saline) is 100 % of control; the T/C (dose: 200.0 mg/kg/injection, schedule: Q04DX003 (ip), vehicle: saline) is 102 % of control.
`CN(C)CC(O)c1cc2ccccc2c2ccccc12` (centres undefined): the T/C runs as follows: (dose: 12.5 mg/kg/injection, schedule: Q01DX009 (ip), vehicle: saline) 106 % of control; (dose: 25.0 mg/kg/injection, schedule: Q01DX009 (ip), vehicle: saline) 103 % of control; under setting [8], 100 % of control.
For `COc1ccc2c(c1)CC[C@@H]1[C@@H]2CC[C@@]2(C)[C@H]1CC[C@@]2(O)C(F)=C(F)F`, the T/C reads like this: (dose: 100.0 mg/kg/injection, schedule: Q04DX003 (ip), vehicle: saline with Tween-80) 88 % of control; (dose: 200.0 mg/kg/injection, schedule: Q04DX003 (ip), vehicle: saline with Tween-80) 88 % of control.
As for `C=CCC(C)(C)CC=C1C2CCC1N(C(=O)OC)N2C(=O)OC`, the T/C by setting is: (dose: 25.0 mg/kg/injection, schedule: Q01DX005 (ip), vehicle: saline with Tween-80) 107 % of control; under setting [2], 99 % of control; under setting [3], 112 % of control.
For the molecule `C/C(Cl)=C\C(=O)c1c(C)[nH]n(-c2ccccc2)c1=O`, the T/C reads like this: under setting [5], 99 % of control; under setting [6], 111 % of control.
For `COCC12CCC(OC)C34C5CC6(O)C(OC)CC(OC(C)=O)(C5C6OC(=O)c5ccccc5)C(C(OC)C13)C4N(C)C2` (centres undefined), the T/C was 106 % of control (dose: 0.31 mg/kg/injection, schedule: Q01DX009 (ip), vehicle: saline); 101 % of control (dose: 0.62 mg/kg/injection, schedule: Q01DX009 (ip), vehicle: saline); 110 % of control (dose: 1.25 mg/kg/injection, schedule: Q01DX009 (ip), vehicle: saline); 102 % of control (dose: 2.5 mg/kg/injection, schedule: Q01DX009 (ip), vehicle: saline); 108 % of control (dose: 5.0 mg/kg/injection, schedule: Q01DX009 (ip), vehicle: saline).
In the case of `C=C1CC23CC4C5C6(C)CC(O)CC57C(C2C(O)C1C(O)C37)N4C6` (centres undefined), the T/C is, setting by setting: (dose: 12.5 mg/kg/injection, schedule: Q01DX009 (ip), vehicle: Klucel (hydroxypropylcellulose) (HPC)) 101 % of control; (dose: 25.0 mg/kg/injection, schedule: Q01DX009 (ip), vehicle: Klucel (hydroxypropylcellulose) (HPC)) 106 % of control; under setting [1], 101 % of control.
Regarding `CCCCCCCCCCCC#CC(=O)OC`, the T/C is, setting by setting: under setting [8], 105 % of control; under setting [9], 103 % of control; under setting [10], 103 % of control.
As to `CCCCC(CCCC)[N+](=O)[O-]`, the T/C is 108 % of control under setting [2], 110 % of control under setting [3] and 103 % of control under setting [4].
As to `NOCc1csc(N)n1`, the T/C (dose: 75.0 mg/kg/injection, schedule: Q01DX009 (ip), vehicle: saline) is 91 % of control; the T/C (dose: 150.0 mg/kg/injection, schedule: Q01DX009 (ip), vehicle: saline) was 91 % of control; the T/C (dose: 300.0 mg/kg/injection, schedule: Q01DX009 (ip), vehicle: saline) is 91 % of control.
